Measurements from patent US20140155445A1, “Compounds and Methods for Treating Cancer and Diseases of the Central Nervous System” (Osta Biotechnologies Inc., priority 2007, published 2014).
“Also recorded” adds a separate entry of the source.

Experiments:
HO-2 (rat brain) = biological target: T1, HO-2 (rat brain) (Rattus norvegicus, UniProt P23711); test: HO enzymatic activity in rat brain microsomal fraction (CO formed from methemalbumin, gas chromatography); assay type: biochemical; details: rat brain microsomes; average ± standard deviation of replicate experiments; hydrochloride; read-out: IC50 HO-2 (rat brain)/μM
T1 construct: brain microsomes were used as a source of HO-2; from tissue; host or cells: brain microsomal fraction of adult male Sprague-Dawley rats
T1 sequence (P23711 1-315): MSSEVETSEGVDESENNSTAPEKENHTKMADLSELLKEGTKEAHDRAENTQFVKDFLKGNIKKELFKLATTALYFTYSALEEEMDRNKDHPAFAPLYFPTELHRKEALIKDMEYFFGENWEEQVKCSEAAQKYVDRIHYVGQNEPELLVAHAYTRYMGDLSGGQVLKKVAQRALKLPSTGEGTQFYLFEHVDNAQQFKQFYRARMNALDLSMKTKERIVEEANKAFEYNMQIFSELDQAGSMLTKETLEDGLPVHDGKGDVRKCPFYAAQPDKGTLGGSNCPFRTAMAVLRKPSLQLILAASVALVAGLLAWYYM

SKMEL-V+ cells = test: Cell proliferation / survival, MTT assay, SKMEL-V+ cells; assay type: cell-based, human; details: 6.25 μM to 100 μM, 96 hours
Experimental: Exponentially growing SKMEL-V+ cells (1×10^3) were seeded in 96-well plates in complete medium. […] Cell survival was evaluated 96 hours later using the MTT metabolic assay (Benlimame N, He Q, Jie S, et al. FAK signaling is critical for ErbB-2/ErbB-3 receptor cooperation for oncogenic transformation and invasion. J Cell Biol 2005; 171: 505-16).

[1] = test system: hHO-1 transfected primary rat astroglial cultures; test: Protein carbonyl ELISA in hHO-1-transfected primary rat astroglia (whole-cell and mitochondrial compartments); assay type: cell-based
Experimental: Cells were grown in Ham's F12 and high glucose DMEM (50:50 v/v) supplemented with 10 mM HEPES, 5% heat-inactivated horse serum, 5% heat-inactivated fetal bovine serum, and penicillin-streptomycin (50 U/mL and 50 μg/mL, respectively).
Upon reaching >90% confluence, 1×10^6 cells were transiently transfected with 4.0 μg of plasmid DNA-Lipofectamine 2000 complex using Lipofectamine 2000 method according to manufacturer instructions (Invitrogen). […] 12 μg of plasmid DNA and 16 μl of Lipofectamine 2000 reagent were diluted in 1.5 mL opti-MEM I reduced serum medium and incubated for 5 minutes at room temperature with gentle mixing. The two solutions were combined, incubated at room temperature for 20 minutes to promote formation of DNA-lipid complexes and administered to the cells. 2 mL opti-MEM I reduced serum medium was added to the flasks to ensure coverage of the monolayer by the transfection mixture. Following incubation for 6 hours at 37° C., the transfection mixture was replaced with 10 mL of complete media without antibiotics.
The cells were sonicated (Sonics & Materials, Danbury, Conn.) at a power level of 50 for 3×20 s in a cooled water bath. […] Whole-cell and mitochondrial preparations were assayed for protein carbonyls as described below.
Protein carbonyls were reacted with 2,4-dinitrophenylhydrazine (DNP) and the hydrazone adducts were detected with anti-DNP antisera. Quantification was achieved by comparison with oxidized BSA standards. Oxidized (carbonylated) BSA was prepared by reacting natural BSA (at 50 mg/mL in PBS) with hypochlorous acid (5 mM) for 1 h at 37° C., followed by overnight dialysis against PBS at 4° C. […] The pellet was resuspended in 2 mL of same buffer, sonicated on ice 2×15 s at 20 W and centrifuged for 20 min at 4° C. at 1,303×g. Protein concentration of supernatant was measured with the RC DC protein assay based on the Lowry protocol (Bio-Rad Laboratories, Hercules, Calif.). All samples were adjusted to 4.0 mg protein/mL. […] Five microliters aliquots of each reaction mixture were mixed with 1 mL PBS and 200 μL replicates were added per well to 96-well immunoplates and incubated overnight at 4° C. After washing with PBS, nonspecific binding sites were blocked with 0.1% Tween 20 in PBS. […] A 6-point standard curve of reduced and oxidized BSA was generated for each plate analyzed. Specific absorbance for each sample was calculated by subtracting basal absorbance of the DNP reagent from the total absorbance.

## Brc1ccc(CCC2(Cn3ccnc3)OCCO2)cc1.Cl [QC-56, 1-((2-(2-(4-Bromophenyl)ethyl)-1,3-dioxolan-2-yl)methyl)-1H-imidazole hydrochloride]
HO-2 (rat brain)
  IC50: ≥ 100 µM
SKMEL-V+ cells
  % cell survival: Dose dependent decrease in cell survival
[1]; 6.5 μM
  oxidative protein damage (protein carbonyls) accruing from hHO-1 transfection: significantly attenuated
[1]; transiently transfected rat astroglia, hydrochloride
  dose dependence of attenuation of oxidative protein damage: significant dose dependant attenuations; also recorded: in a dose dependent manner significantly decreased; also recorded: significant dose-dependant attenuations

## Brc1ccc(CCCCn2ccnc2)cc1.Cl [QC-199, 1-[4-(4-bromophenyl)butyl]-1H-imidazole hydrochloride]
SKMEL-V+ cells
  % cell survival: Dose dependent decrease in cell survival
